For test [1], the system named is R6/2 mice. Nature of the test: Striatal atrophy / lateral ventricle enlargement on coronal brain sections. Conditions: R6/2 mice at 12 weeks old; vehicle 1.63±0.14, p<0.001, n=5. In kind it is in vivo, mouse. As to the method:
Striatal atrophy is one of the major characteristics of HD. In R6/2 mice, marked progressive atrophy of the striatum was found at the age of 3 to 13 weeks (Ferrante et al., J. Neurosci. 2000;20:4389–4397). Thus, the above-described CGS 21680-treated and vehicle-treated R6/2 mice were examined for striatal atrophy.
Each of the mice was anesthetized using sodium pentobarbital (100 μg/g), and intracardially perfused with 4% paraformaldehyde in 0.1 M phosphate buffer (PB, pH 7.4). The brain was carefully removed, post-fixed with 4% paraformaldehyde/0.1 M PB for 2–5 hours, and immersed in 30% glycerol in 0.1 M PB. Then, it was cut at 20 μm on a freezing microtome (CM3050, Leica Microsystems Nussloch, Nussloch, Germany). Serial-cut coronal tissue sections from the rostral segment of the neostriatum to the level of the anterior commissure (interaural 5.34 mm/bregma 1.54 mm to interaural 3.7 mm/bregma −0.1 mm) were used to define atrophy of the striatum and enlargement of the lateral ventricles. Total areas of the striatum or the lateral ventricles were measured using the software NIH Image 1.62. Nissl-stained sections were quantified by counting the corresponding types of cells in defined areas of photomicrographs taken using a phase contrast microscope.

Test [2] has as its system R6/2 mice. Nature of the test: Motor coordination by rotarod performance. The settings on record: treatment from 7 weeks of age, vs vehicle. In kind it is in vivo, mouse. From the text:
The motor coordination of each mouse was also examined by rotarod performance using standard techniques. […] It is known that the motor coordination of an R6/2 mouse starts to deteriorate at the age of 4 weeks, which is 3 weeks prior to the time of the CGS 21680 treatment. It is expected that CGS 21680 administration prior to 4 week of age might improve the motor coordination of an R6/2 mouse.
A general note: The rotarod test checks motor coordination on a turning rod.

Test [3] relates to AMPK. Nature of the test: Western blot of AMPK protein and Thr172 phosphorylation in striatal cytosolic fraction of treated R6/2 mice. In kind it is in vivo, mouse. The settings on record: striatum of R6/2 mice, 5 μg/g i.p. once a day up to 3.5 weeks. On the procedure: Male R6/2 mice and wild type littermates were obtained from Jackson Laboratories (Bar Harbor, Me., USA) and were mated with female control mice (B6CBAFI/J). Each offspring was genotyped by PCR using genomic DNA extracted from the tail to ensure that the number of CAG repeats remained approximately 150. Primers used were [NT] ID NO:1) and [NT] ID NO:2). All animal experiments were performed under protocols approved by the Academia Sinica Institutional Animal Care and Utilization Conunittee, Taiwan. […] Then, the striatal cytosolic fraction was collected from each mouse and subjected to Western blot analysis using the standard techniques as described in Rutter et al., Biochem. J. 2003;375:1-16. More specifically, membrane fractions were combined with a 2× sample buffer containing 125 mM Tris-HCl (pH 6.8), 20% glycerol, 1% SDS, 15% 2-mercaptoethanol, 200 mM dithiothreitol, and 0.01% bromphenol blue; boiled for 5 minutes; centrifuged to remove the insoluble material; and then separated on 8% separating gels. […] The phosphorylation of AMPK at Thr172 was quantified by densitometry of the anti-AMPK-P immunoreactive bands using ImageQuant v.3.15 (Molecular Dynamics).
(In general: Immunoblotting shows a protein as a band on a membrane.)

The subject of test [4] is NGF, CNTF, GDNF, BDNF, bFGF. As to the kind of experiment: Quantitative real-time RT-PCR of striatal neurotrophic factors. It is filed as in vivo, mouse. The settings on record: R6/2 mice, mRNA normalized to GAPDH, vs vehicle. As to the method: Total RNA was purified from each of the above-described administrated mice and their littermates, and was treated with RNase-free DNase I (RQI, Promega, Madison, Wis., USA) following the manufacturer's protocol to remove genomic DNA. cDNA synthesis and quantitative real-time RT-PCR were performed using the […] One-Step RT-PCR kit (Clontech, Palo Alto, Calif., USA) containing SYBR Green I (BioWhittaker Molecular Applications; BMA, Rockland, Me., USA). More specifically, the first-strand cDNA was synthesized at 50° C. for 60 minutes and denatured at 95° C. for 10 minutes. PCR reactions were then carried out in the same tubes using the following conditions for 40 cycles: 95° C. for 30 seconds, 60° C. for 30 seconds, and 68° C. for 60 seconds.
Independent RT-PCRs were performed using the same RNAs for each neurotrophic factor gene (target gene) and glyceraldehyde-3-phosphate dehydrogenase (GAPDH, reference gene). Real-time fluorescence monitoring and melting curve analysis were performed using Rotor-Gene 3000 (Corbett Research, Sydney, Australia). […] Data were analyzed by the Rotor-Gene 3000 operating software version 4.6.94 (Corbett Research) to determine the threshold cycle (CT) above the background for each reaction. The relative transcript amount of each target gene, calculated using standard curves of serial RNA dilutions, was normalized to that of GAPDH amplified from the same RNA.
In general terms: Quantitative PCR measures a nucleic acid by following its amplification.

Test [5] relates to adenylyl cyclase. Nature of the test: Adenylyl cyclase activity assay on striatal membrane fractions. It is filed as biochemical, mouse. Conditions: striatal membranes of R6/2 mice compared with wild type mice.
Protocol: Briefly, striatal tissues were isolated from the mice and sonicated in a lysis buffer (0.4 mM EDTA, 1 mM EGTA, 25 mM Tris-HCl, 250 mM sucrose, 0.1 mM leupeptin, and 40 μM PMSF, pH 7.4) using a W-380 sonicator (Ultrasonics, Farmingdale, N.Y., USA) at a setting of 20% output power for a total of 45 seconds. The resultant homogenate was centrifuged at 50,000×g for 30 minutes and the P1 membrane fractions and the soluble fractions were collected. The adenylyl cyclase activity assay was performed at 37° C. for 10 minutes in a 400-μl reaction mixture containing 1 mM ATP, 100 mM NaCl, 50 mM Hepes, 0.2 mM EGTA, 100 μM rolipram, 6 mM MgCl2, 1 μM GTP, and 20 μg of membrane protein. The reactions were stopped by adding 0.6 ml of 10% TCA. The cAMP formed was isolated by Dowex chromatography (Sigma, St. Louis, Mo., USA) and was assayed to the method described in Chern et al. The enzymatic reaction was in a linear range for up to 30 minutes with up to 40 μg of membrane proteins.
Test [6] relates to R6/2 mice. Nature of the test: Locomotor activity (beam breaks in activity monitor) of R6/2 mice. In kind it is in vivo, mouse. Conditions: week 2 after administration, 5 μg/g i.p. daily, vs vehicle, statistically significant (Student's t-test). On the procedure: Twenty-four hours after each administration, the locomotor activity of each mouse was measured for 10 minutes according to the method described in Lee et al., Chin. J. Physiol. 1992;35:317–336. Briefly, each mouse was placed in an activity monitor (Coulbourn Instruments, Allentown, Pa., USA) equipped with 16×16 horizontal sensors, which were used to monitor the mouse's floor position. The locomotor activity was measured by the total number of beam breaks in an X-Y plane recorded every 10 minutes.

Test [7] relates to R6/2 mice. Nature of the test: Blood glucose level in R6/2 mice. It is filed as in vivo, mouse. The settings on record: chronic treatment, untreated R6/2 higher than wild type by approximately 1-fold. On the procedure: Hyperglycemia has been found in HD patients and R6/2 mice. […] The above-described R6/2 mice and wild type littermates were decapitated and blood samples (1 to 1.5 ml) were collected from each mouse using standard techniques. Blood glucose levels were measured using ABBOTT Alcyon 300i (ABBOTT Labs, USA).

As for `CCNC(=O)[C@H]1O[C@@H](n2cnc3c(N)nc(NCCc4ccc(CCC(=O)O)cc4)nc32)[C@H](O)[C@@H]1O` [CGS21680], in test [1], the “size of ventricular enlargement” value worked out at 0.91±0.14 mm^2. In test [2], the “motor coordination (rotarod performance)” value is given as “No difference was found”. Further, the “reduction of AMPK phosphorylation level (Thr172)” value in test [3] (vs vehicle) is reported as “about 35%”. The AMPK protein level entry in test [3] (compared with vehicle R6/2 and wild type) is on record as “about the same AMPK protein level”. Moreover, the “striatum expression level of trophic factors” value in test [4] is given as “did not change”. Also, in test [5], the “adenylyl cyclase activities induced by the compound, R6/2 vs wild type mice” value is listed as “much higher level than those in the wild type mice”. Further, in test [6], the locomotor activity entry is recorded as “did not exhibit such deterioration, but showed improvement in the locomotor activity”. The blood glucose level result in test [7] is reported as “reduced the aberrantly elevated blood glucose level in R6/2 mice to a level comparable to that in the wild type mice”.

Values taken from patent US7220729B2, “Huntington's Disease Treatment” (Academia Sinica, priority 2004, dated 2007).
